In assay [1] the target is G protein-coupled receptor kinase 5 (Homo sapiens) (UniProt P34947). Put plainly: Residual activity of GRK5 at 1 uM by microplate scintillation counting.
The target in assay [2] is Platelet-derived growth factor receptor alpha (Homo sapiens) (UniProt P16234). In words: Residual activity of PDGFRalpha at 0.1 uM by microplate scintillation counting.
The target of assay [3] is Leukocyte tyrosine kinase receptor (Homo sapiens) (UniProt P29376). Put plainly: Residual activity of LTK at 10 uM by microplate scintillation counting.
Assay [4] has as its target Serine/threonine-protein kinase MARK1 (Homo sapiens) (UniProt Q9P0L2). Put plainly: Residual activity of MARK1 at 0.1 uM by microplate scintillation counting.
Assay [5] relates to T1, Dual specificity mitogen-activated protein kinase kinase 6 (Homo sapiens), P52564 [S207D,T211D].
T1 sequence (whole entry): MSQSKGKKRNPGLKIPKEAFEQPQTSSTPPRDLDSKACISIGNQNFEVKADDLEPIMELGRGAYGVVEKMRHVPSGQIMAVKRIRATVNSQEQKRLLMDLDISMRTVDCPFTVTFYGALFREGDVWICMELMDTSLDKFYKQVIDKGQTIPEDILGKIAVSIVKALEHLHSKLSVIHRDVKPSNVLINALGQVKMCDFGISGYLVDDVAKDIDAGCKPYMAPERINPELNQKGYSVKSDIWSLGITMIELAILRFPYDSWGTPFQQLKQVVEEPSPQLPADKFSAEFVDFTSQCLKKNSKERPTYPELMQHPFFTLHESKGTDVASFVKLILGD
Put plainly: Residual activity of MKK6 S207D/T211D mutant at 10 uM by microplate scintillation counting.

The target in assay [6] is Tyrosine-protein kinase HCK (Homo sapiens) (UniProt P08631). In words: Residual activity of HCK at 1 uM by microplate scintillation counting.
Assay [7] has as its target Mitogen-activated protein kinase kinase kinase 8 (Homo sapiens) (UniProt P41279). In words: Residual activity of COT at 0.1 uM by microplate scintillation counting.
Assay [8] has as its target Tyrosine-protein kinase BTK (Homo sapiens) (UniProt Q06187). Put plainly: Residual activity of BTK at 10 uM by microplate scintillation counting.
Assay [9] concerns the target Fibroblast growth factor receptor 1 (Homo sapiens) (UniProt P11362). Put plainly: Residual activity of wild type FGF-R1 at 10 uM by microplate scintillation counting.
The target of assay [10] is T2, Inhibitor of nuclear factor kappa-B kinase subunit alpha (Homo sapiens) (UniProt O15111).
T2 sequence (whole entry): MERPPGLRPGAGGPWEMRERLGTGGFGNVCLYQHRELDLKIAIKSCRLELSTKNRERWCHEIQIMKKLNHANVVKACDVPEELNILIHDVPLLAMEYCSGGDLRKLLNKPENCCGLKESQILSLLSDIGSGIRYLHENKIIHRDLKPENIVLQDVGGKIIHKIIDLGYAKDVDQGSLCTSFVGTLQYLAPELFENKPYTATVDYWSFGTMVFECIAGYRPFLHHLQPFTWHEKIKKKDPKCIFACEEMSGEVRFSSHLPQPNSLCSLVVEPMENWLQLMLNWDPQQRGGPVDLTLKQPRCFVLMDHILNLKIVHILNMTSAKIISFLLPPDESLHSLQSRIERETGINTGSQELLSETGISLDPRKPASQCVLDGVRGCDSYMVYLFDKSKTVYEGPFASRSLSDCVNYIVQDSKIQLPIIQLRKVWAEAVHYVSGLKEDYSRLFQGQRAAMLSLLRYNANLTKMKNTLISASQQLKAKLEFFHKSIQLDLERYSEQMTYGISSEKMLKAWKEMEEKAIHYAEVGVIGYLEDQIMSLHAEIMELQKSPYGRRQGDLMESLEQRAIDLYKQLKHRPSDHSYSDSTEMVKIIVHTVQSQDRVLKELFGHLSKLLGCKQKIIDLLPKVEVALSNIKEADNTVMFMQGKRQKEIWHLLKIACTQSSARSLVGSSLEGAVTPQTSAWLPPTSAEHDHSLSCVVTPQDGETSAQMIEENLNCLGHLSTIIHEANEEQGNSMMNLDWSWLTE
In words: Residual activity of IKKalpha at 0.1 uM by microplate scintillation counting.

Assay [11] has as its target Calcium/calmodulin-dependent protein kinase type II subunit delta (Homo sapiens) (UniProt Q13557). In words: Residual activity of CAMK2D at 10 uM by microplate scintillation counting.
The target of assay [12] is T3, Serine/threonine-protein kinase 4 (Homo sapiens) (UniProt Q13043).
T3 sequence (whole entry): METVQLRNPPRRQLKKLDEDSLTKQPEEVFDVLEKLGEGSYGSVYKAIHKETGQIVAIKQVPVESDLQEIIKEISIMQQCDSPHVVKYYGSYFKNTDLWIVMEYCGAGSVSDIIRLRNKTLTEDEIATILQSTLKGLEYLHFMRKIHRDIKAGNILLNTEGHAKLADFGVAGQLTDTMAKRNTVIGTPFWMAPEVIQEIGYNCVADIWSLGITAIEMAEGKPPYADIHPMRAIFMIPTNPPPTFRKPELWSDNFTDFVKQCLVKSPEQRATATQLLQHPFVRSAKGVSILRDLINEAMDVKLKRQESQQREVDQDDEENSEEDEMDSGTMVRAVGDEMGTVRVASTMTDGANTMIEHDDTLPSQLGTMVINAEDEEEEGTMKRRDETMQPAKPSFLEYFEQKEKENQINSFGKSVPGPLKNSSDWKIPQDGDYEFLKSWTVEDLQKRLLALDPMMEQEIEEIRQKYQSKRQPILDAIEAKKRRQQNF
In words: Residual activity of MST1 at 1 uM by microplate scintillation counting.

Assay [13] concerns the target Rho-associated protein kinase 1 (Homo sapiens) (UniProt Q13464). In words: Residual activity of ROCK1 at 0.1 uM by microplate scintillation counting.
In assay [14] the target is Cyclin-dependent kinase 5/CDK5 activator 1 (Homo sapiens) (UniProt Q00535+Q15078). Put plainly: Residual activity of CDK5/p25NCK at 1 uM by microplate scintillation counting. The class given is protein-complex assay.
Cyclin-dependent kinase 5/CDK5 activator 1 (Homo sapiens), sequence (Q00535 whole entry): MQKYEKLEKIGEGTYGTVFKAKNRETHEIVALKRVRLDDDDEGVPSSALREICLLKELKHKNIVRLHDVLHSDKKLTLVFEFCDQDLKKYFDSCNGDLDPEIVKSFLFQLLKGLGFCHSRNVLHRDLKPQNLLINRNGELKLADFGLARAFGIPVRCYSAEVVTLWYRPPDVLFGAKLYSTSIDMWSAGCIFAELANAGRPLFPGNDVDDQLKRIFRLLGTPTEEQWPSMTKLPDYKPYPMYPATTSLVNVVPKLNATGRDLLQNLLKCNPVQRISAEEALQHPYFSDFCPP
Cyclin-dependent kinase 5/CDK5 activator 1 (Homo sapiens), sequence (Q15078 99-307 partner limits assumed): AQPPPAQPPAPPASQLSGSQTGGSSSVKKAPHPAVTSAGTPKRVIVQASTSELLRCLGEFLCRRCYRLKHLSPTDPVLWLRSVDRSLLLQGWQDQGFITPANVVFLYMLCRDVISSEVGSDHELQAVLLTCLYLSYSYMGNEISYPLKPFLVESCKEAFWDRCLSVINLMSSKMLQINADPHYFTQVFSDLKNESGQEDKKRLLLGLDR

Tyrosine-protein kinase HCK (Homo sapiens), sequence (P08631 2-526 limits assumed): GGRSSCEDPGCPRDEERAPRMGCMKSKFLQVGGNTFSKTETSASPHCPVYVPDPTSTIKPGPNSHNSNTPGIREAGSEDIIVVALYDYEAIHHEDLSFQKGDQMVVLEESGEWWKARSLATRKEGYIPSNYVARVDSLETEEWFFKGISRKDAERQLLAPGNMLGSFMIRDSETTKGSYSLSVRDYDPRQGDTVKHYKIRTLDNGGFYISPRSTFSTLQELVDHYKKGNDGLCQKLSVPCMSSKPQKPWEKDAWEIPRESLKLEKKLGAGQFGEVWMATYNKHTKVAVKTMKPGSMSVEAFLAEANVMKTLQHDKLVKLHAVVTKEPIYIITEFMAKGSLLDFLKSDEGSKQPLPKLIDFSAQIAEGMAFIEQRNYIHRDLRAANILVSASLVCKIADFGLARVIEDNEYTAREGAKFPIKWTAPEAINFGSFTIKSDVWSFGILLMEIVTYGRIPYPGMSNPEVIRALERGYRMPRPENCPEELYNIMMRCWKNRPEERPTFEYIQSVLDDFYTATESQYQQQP
Calcium/calmodulin-dependent protein kinase type II subunit delta (Homo sapiens), sequence (Q13557 whole entry): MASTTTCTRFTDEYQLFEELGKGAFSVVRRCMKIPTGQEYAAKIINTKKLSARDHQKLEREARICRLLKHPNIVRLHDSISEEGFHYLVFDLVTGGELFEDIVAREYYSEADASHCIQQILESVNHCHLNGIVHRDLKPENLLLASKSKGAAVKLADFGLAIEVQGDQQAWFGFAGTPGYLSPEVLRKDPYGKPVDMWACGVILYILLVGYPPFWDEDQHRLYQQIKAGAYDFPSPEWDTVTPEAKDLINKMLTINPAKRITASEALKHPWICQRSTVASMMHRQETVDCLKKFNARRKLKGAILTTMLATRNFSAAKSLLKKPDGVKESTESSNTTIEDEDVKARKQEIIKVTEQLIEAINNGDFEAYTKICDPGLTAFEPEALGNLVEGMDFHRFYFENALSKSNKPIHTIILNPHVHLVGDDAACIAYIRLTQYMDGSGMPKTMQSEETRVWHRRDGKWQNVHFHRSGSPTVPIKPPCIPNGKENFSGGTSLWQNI
Serine/threonine-protein kinase MARK1 (Homo sapiens), sequence (Q9P0L2 whole entry, looked up): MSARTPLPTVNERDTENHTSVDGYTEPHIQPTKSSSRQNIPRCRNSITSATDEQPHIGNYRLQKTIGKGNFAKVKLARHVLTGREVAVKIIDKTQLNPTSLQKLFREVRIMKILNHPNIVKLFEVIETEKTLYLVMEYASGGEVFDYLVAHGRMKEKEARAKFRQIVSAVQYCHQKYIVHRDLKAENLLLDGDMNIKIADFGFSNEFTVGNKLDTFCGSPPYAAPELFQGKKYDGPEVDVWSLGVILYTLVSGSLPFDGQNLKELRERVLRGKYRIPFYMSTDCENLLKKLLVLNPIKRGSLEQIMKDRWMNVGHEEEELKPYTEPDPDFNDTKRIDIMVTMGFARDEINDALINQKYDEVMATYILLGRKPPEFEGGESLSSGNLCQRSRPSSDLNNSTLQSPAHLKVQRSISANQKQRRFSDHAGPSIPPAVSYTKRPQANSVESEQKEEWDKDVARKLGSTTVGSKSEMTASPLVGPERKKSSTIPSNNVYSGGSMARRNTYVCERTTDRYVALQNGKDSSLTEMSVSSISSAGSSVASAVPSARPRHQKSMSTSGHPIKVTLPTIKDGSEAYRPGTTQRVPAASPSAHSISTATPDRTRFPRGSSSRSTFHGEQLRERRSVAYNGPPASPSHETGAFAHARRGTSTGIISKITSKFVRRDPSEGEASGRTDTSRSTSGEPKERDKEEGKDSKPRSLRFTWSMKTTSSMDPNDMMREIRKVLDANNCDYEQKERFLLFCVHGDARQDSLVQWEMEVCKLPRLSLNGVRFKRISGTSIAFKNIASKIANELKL
Mitogen-activated protein kinase kinase kinase 8 (Homo sapiens), sequence (P41279 whole entry): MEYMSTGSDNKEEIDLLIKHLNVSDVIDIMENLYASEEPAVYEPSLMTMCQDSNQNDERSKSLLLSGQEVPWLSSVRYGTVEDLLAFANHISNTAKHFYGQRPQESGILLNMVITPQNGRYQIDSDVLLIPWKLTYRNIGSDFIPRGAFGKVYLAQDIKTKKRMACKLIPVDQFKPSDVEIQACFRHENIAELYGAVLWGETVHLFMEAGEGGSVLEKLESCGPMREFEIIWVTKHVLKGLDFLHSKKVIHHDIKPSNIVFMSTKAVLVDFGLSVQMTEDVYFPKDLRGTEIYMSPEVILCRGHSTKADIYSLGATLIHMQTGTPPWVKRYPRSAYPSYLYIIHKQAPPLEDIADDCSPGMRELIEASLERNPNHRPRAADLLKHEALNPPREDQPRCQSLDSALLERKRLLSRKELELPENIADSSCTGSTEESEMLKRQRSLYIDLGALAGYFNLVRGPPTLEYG
Platelet-derived growth factor receptor alpha (Homo sapiens), sequence (P16234 whole entry): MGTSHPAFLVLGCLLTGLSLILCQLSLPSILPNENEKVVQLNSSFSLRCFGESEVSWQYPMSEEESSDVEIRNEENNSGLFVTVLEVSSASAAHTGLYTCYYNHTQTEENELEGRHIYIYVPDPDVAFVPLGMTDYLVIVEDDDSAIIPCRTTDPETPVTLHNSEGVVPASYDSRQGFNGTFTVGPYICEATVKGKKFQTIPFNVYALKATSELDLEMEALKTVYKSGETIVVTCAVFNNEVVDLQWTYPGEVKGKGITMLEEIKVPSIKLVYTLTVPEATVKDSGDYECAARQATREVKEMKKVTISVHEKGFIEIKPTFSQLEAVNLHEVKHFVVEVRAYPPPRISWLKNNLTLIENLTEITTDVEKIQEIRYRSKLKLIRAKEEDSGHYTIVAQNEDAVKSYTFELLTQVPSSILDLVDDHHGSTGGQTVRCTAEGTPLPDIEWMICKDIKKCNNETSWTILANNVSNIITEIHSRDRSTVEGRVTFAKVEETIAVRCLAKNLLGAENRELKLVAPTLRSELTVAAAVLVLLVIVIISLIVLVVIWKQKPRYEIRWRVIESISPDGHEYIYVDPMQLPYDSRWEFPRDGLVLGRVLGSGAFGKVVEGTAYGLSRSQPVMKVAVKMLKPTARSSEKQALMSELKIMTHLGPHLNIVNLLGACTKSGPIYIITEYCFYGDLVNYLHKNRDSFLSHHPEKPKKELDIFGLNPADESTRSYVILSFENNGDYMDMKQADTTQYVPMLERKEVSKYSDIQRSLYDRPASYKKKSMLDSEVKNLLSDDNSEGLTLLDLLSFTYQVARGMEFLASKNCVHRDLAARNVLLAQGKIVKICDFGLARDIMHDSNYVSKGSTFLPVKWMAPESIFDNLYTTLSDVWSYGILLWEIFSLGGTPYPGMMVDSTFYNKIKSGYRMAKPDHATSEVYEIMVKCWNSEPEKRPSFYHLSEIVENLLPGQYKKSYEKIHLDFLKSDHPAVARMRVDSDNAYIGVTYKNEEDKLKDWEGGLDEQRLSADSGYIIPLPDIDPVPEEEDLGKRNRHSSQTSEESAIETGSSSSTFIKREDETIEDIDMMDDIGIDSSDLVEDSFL
G protein-coupled receptor kinase 5 (Homo sapiens), sequence (P34947 whole entry, looked up): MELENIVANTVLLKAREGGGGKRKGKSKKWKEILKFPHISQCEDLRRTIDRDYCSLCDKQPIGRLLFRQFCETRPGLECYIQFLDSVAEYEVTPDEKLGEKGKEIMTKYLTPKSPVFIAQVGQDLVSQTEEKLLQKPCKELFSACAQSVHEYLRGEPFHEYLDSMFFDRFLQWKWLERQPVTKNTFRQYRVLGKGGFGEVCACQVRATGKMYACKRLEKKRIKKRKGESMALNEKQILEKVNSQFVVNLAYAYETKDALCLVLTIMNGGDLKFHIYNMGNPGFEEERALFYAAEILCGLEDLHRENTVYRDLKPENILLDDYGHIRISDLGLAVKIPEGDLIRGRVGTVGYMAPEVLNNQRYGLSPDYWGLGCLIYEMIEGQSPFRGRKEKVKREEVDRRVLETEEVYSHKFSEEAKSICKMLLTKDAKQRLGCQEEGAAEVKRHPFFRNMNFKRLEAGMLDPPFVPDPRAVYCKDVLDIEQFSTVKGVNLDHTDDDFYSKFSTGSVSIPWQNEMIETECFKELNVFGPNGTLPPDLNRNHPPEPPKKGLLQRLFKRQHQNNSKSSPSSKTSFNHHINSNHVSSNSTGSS

Take `COc1cc2c(Oc3ccc(-c4nc5ccccc5s4)cc3F)ncnc2cc1OCCCN1CCN(C)CC1`: the residual activity in [1] was found to be 90%; in assay [2], 94%; in assay [3], 89%; in assay [4], 91%; in assay [5] it was 164%; in assay [6], 99%. Further, the residual activity in [7] worked out at 78%; in assay [8], 6%; in assay [9], 47%; in assay [10], 81%; in assay [11] it was 44%; in assay [12], 101%. Moreover, the residual activity turned out to be 101% in assay [13] and 89% in assay [14].

With `COc1cc2c(Oc3ccc(-c4nc5ccccc5s4)cc3)ncnc2cc1OCCCN1CCN(C)CC1`, the residual activity was 87% in [1]; 86% in [2]; 163% in assay [3]; 98% in [4]; 185% in assay [5]; 93% in assay [6]. The residual activity came out at 101% in assay [7]; 40% in assay [8]; 157% in assay [9]; 87% in assay [10]; 28% in [11]; 87% in [12]. Moreover, the residual activity in [13] is 98%; in [14], 82%.

In the case of `COc1cc2c(Oc3ccc(-c4nc5ccccc5s4)cc3)ncnc2cc1OCCCN1CCCC1`, the residual activity in assay [1] turned out to be 89%; in assay [2] it was 86%; in assay [3], 200%; in [4] it was 90%; in [5], 148%; in assay [6] it was 116%. For the same compound, the residual activity in assay [7] was 73%; in [8] it was 53%; in [9], 124%; in assay [10] it was 89%; in assay [11] it was 13%; in assay [12], 81%. In addition, the results for the residual activity in assay [13] and in assay [14] were 96% and 87%, respectively.

The values are drawn from ChEMBL document CHEMBL1152560, “Substituted 2-arylbenzothiazoles as kinase inhibitors: hit-to-lead optimization” (Bioorg Med Chem, 2009).
